In PubChem BioAssay (NCI) one finds GI50 and TGI data, which are given here for ten compounds.

Each structure is given as a SMILES string. Several values for one entry are separate records, joined by “and”; a condition that tells them apart may be missing. Equal entries are not always repeated.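 Exposure lasted 48 hours, with cells grown in 96-well plates and compounds tested at five concentrations. Abbreviation: GI50, concentration required for 50% inhibition of growth. Definition used: TGI = concentration required for complete inhibition of growth.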 Where only a bound is given, the exact number is not on record here.

Among the test systems are ACHN renal; SNB-75 CNS; LOX IMVI melanoma; U251 CNS; HT29 colon; K-562 leukemia; 786-0 renal; SK-MEL-28 melanoma; M14 melanoma; SW-620 colon.
Assay in all cases: NCI-60 cell line screen, 48 h

On to `Fc1ccc(-c2nn3c(COc4ccc(Cl)cc4)nnc3s2)cc1Oc1ccccc1`, for which the GI50 with ACHN renal is 31.4 µM; in the test with SNB-75 CNS it was 61 µM; with LOX IMVI melanoma it was above 42.2 µM; with U251 CNS it was 25.1 µM; with HT29 colon, above 47.9 µM; with K-562 leukemia, 42.1 µM. Besides, the GI50 with 786-0 renal is 14.2 µM; in the test with SK-MEL-28 melanoma, 37 µM; in the test on M14 melanoma, above 49.5 µM; with SW-620 colon, 48.4 µM. For the same compound, the TGI with ACHN renal is above 53.1 µM; in the test on SNB-75 CNS, above 100 µM; in the test with LOX IMVI melanoma, above 56.3 µM; in the test with U251 CNS, above 53.5 µM; in the test with HT29 colon, above 74.8 µM; in the test with K-562 leukemia, above 100 µM. Also, the TGI with 786-0 renal is 30 µM; in the test with SK-MEL-28 melanoma, above 100 µM; with M14 melanoma, above 79.3 µM; with SW-620 colon, above 100 µM.

Regarding `CC(=O)OCC1OC(n2c(=S)n(-c3ccccc3)c(=O)c3cc(Br)cc(Br)c32)C(OC(C)=O)C(OC(C)=O)C1OC(C)=O` (stereo not drawn), the TGI was above 100 µM with ACHN renal; 92.5 µM and > 100 µM in the test with SNB-75 CNS; above 100 µM in the test with LOX IMVI melanoma; above 100 µM in the test on U251 CNS; above 100 µM in the test on HT29 colon; above 100 µM with K-562 leukemia. The TGI with 786-0 renal, in the test on SK-MEL-28 melanoma, in the test with M14 melanoma and in the test with SW-620 colon was above 100 µM in each case. In addition, the GI50 in the test with U251 CNS is 20 µM and 91.9 µM; with 786-0 renal, 25.7 µM and 98.7 µM; with M14 melanoma, 28.6 µM and > 100 µM.

For `CC1=C2[C@@H](CC1)[C@]1(C)O[C@@](C3CC3)(C[C@H]1OC(=O)CO)[C@H]2OC(=O)/C=C/c1ccccc1`, the GI50 with ACHN renal is 0.0339 µM; in the test with SNB-75 CNS, 12.6 µM; in the test with LOX IMVI melanoma it was 15.1 µM; in the test on U251 CNS, 15.6 µM; with HT29 colon, 16.1 µM; in the test on K-562 leukemia, 16.1 µM. Besides, the GI50 with 786-0 renal was 3.19 µM; in the test with SK-MEL-28 melanoma it was 18.6 µM; in the test with M14 melanoma, 16.4 µM; in the test on SW-620 colon it was 19.1 µM. The TGI with ACHN renal came to 13.2 µM; with SNB-75 CNS it was 30.5 µM; in the test with LOX IMVI melanoma, 31.8 µM; in the test on U251 CNS, 29.3 µM; in the test on HT29 colon, 32.2 µM; with K-562 leukemia, 46 µM. Besides, the TGI in the test on 786-0 renal came out at 25.7 µM; in the test on SK-MEL-28 melanoma, 36.3 µM; in the test with M14 melanoma, 32.3 µM; with SW-620 colon it was 36.7 µM.

In the case of `CC1CC(C)C(C(O)CC2CC(=O)N(c3ccccc3)C(=O)C2)C(O)C1` (stereo not drawn), the TGI in the test with ACHN renal, with SNB-75 CNS, in the test on LOX IMVI melanoma, with U251 CNS, with HT29 colon and in the test on K-562 leukemia was above 100 µM each time. Also, the TGI with 786-0 renal, in the test on SK-MEL-28 melanoma, with M14 melanoma and in the test with SW-620 colon was above 100 µM each time.

Consider `CNCc1ccc(-c2[nH]c3cc(F)cc4c3c2CCNC4=O)cc1`, for which the GI50 with ACHN renal was 18.7 µM; in the test on SNB-75 CNS, 9.49 µM; with LOX IMVI melanoma, 12.9 µM; in the test with U251 CNS, 16 µM; in the test on HT29 colon, 19.5 µM; in the test on K-562 leukemia it was 18 µM. Moreover, the GI50 with 786-0 renal was 19 µM; in the test with SK-MEL-28 melanoma, 15.6 µM; in the test on M14 melanoma it was 16.6 µM; in the test on SW-620 colon it was 16.1 µM. Further, the TGI in the test on ACHN renal is above 58.2 µM; in the test with SNB-75 CNS it was 27.3 µM; in the test with LOX IMVI melanoma, 29.2 µM; in the test on U251 CNS, 57.7 µM; with HT29 colon, 76.3 µM; in the test on K-562 leukemia, 43.9 µM. For the same compound, the TGI is 41.5 µM in the test with 786-0 renal, 32 µM with SK-MEL-28 melanoma, 32.7 µM in the test on M14 melanoma and 60.4 µM with SW-620 colon.

`C[C@]12CCC3=NCCN3C1=CC[C@@H]1[C@@H]2CC[C@@]2(C)[C@H]1CC[C@]2(C)O`: the TGI with ACHN renal, with SNB-75 CNS, in the test on LOX IMVI melanoma, in the test with U251 CNS, in the test with HT29 colon and in the test with K-562 leukemia was above 100 µM in each case. In addition, the TGI in the test on 786-0 renal was 32.4 µM; in the test with SK-MEL-28 melanoma it was 99.6 µM; in the test on M14 melanoma it was above 100 µM; in the test on SW-620 colon it was above 100 µM.

Consider `COCC1N=C(c2cc(OC)c(OC)c(OC)c2-c2cc3c(cc2[C@H](C)O)OCO3)O[C@H]1c1ccccc1` (stereo partly drawn), for which the TGI with ACHN renal was above 100 µM; with SNB-75 CNS, above 100 µM; in the test on LOX IMVI melanoma, above 100 µM; in the test with U251 CNS, above 100 µM; with HT29 colon, above 100 µM; in the test with K-562 leukemia, above 10 µM. Also, the TGI in the test on 786-0 renal, in the test on SK-MEL-28 melanoma, in the test with M14 melanoma and in the test with SW-620 colon was above 100 µM throughout.

Regarding `COc1ccc(OCC(O)CN2CCN(c3ccc(Cl)cc3)CC2)cc1` (stereo not drawn), the GI50 is 65.9 µM in the test with ACHN renal; 17 µM in the test with SNB-75 CNS; above 100 µM in the test on LOX IMVI melanoma; 79.3 µM in the test with U251 CNS; above 100 µM with HT29 colon; above 100 µM in the test on K-562 leukemia. The GI50 with 786-0 renal, with SK-MEL-28 melanoma, in the test on M14 melanoma and in the test on SW-620 colon was above 100 µM each time. For the same compound, the TGI is above 100 µM in the test with ACHN renal; 83.5 µM in the test with SNB-75 CNS; above 100 µM with LOX IMVI melanoma; above 100 µM with U251 CNS; above 100 µM with HT29 colon; above 100 µM in the test on K-562 leukemia. Also, the TGI in the test on 786-0 renal, in the test with SK-MEL-28 melanoma, with M14 melanoma and in the test on SW-620 colon was above 100 µM in each case.

Take `Nc1ccc(C(=O)/C=C/c2ccccc2O)cc1`: the TGI with ACHN renal, with SNB-75 CNS, in the test on LOX IMVI melanoma, in the test on U251 CNS, in the test on HT29 colon and with K-562 leukemia was above 100 µM throughout. Besides, the TGI with 786-0 renal, with SK-MEL-28 melanoma, with M14 melanoma and with SW-620 colon was above 100 µM throughout.

On to `Cc1ccc(S(=O)(=O)N2CCC(C(=O)O)(c3ccccc3)CC2)cc1`, for which the TGI in the test on ACHN renal, with SNB-75 CNS, in the test with LOX IMVI melanoma, in the test with U251 CNS, in the test on HT29 colon and in the test with K-562 leukemia was above 100 µM in each case. For the same compound, the TGI in the test with 786-0 renal, in the test with SK-MEL-28 melanoma, with M14 melanoma and in the test with SW-620 colon was above 100 µM in each case.
